These results are taken from patent EP2802310B1, “NEW USE OF ZERUMBONE AND COMPOSITIONS COMPRISING ZERUMBONE” (Sederma, priority 2012, dated 2013).

In experiment [1] the test system is mature adipocytes. The experiment in a line: Intracellular triglyceride quantity in mature adipocytes. The experiment is classed as cell-based, human. To be noted: Caffeine 300ppm. The procedure: (§1) Mature human adipocytes were treated with zerumbone to evaluate daily for 3 days. A daily titration of the released glycerol, reflecting lipolysis, was measured in the medium, before the media were changed in order to monitor the long-term effect.
Table 5: comparison of the intracellula triglyceride quantity found in mature adipocytes
Table 20: Comparison of the intracellular triglyceride content found in the mature adipocytes; compared effect of zerumbone, caffeine and of a mixture of zerumbone and caffeine.

Experiment [2] concerns Mature human adipocytes. The experiment in a line: Lipolytic effect, daily titration of released glycerol over 3 days. The experiment is classed as cell-based. To be noted: Caffeine 300ppm; for activation at 300 ppm: Homo sapiens, Adipocyte, read-out: released glycerol, versus negative control. On the procedure: as §1
In a second test, mature human adipocytes were treated with the product to evaluate daily for 3 days. A daily titration of the released glycerol was performed in the media, just before changing of the media in order to monitor the long term effect. Table 19: Comparison of the lipolytic effect of caffeine, zerumbone and of a mixture of caffeine and zerumbone on hypertrophied adipocytes in monolayer (n=4) at short and long term.

The test system of experiment [3] is Mature human adipocytes. The experiment in a line: Lipolytic effect, released glycerol after 3 hours. The experiment is classed as cell-based. To be noted: Adipocyte, Caffeine 300ppm, contact time 3h, read-out: released glycerol, versus negative control. The procedure:
In a first test, mature human adipocytes were treated with the product to evaluate for 3 hours, then titration of the released glycerol, reflecting lipolysis, was measured in the medium.

Experiment [4] concerns Sirtuin-1. The experiment in a line: Sirtuin-1 level in keratinocytes, ELISA. The experiment is classed as cell-based. The settings on record: Homo sapiens, Keratinocyte, 144 h, positive control at 500µm, read-out: Sirtuin-1 % Variation. The procedure: Human keratinocytes were cultured in the presence or absence of the Globularia cordifolia extract for 6 days and were then grinded and the intracellular levels of sirtuin-1 were measured using an ELISA method. Results were standardized by parallel measurement of total protein (BCA).
(In general: ELISA stands for enzyme-linked immunosorbent assay.)

In experiment [5] the test system is BSA. In words: Anti-glycation activity, BSA and fructose, fluorescence. The experiment is classed as biochemical. The settings on record: positive control at 0.03%. An excerpt:
The anti-glycation effect of the extract of Globularia cordifolia was studied using a protein model, the BSA, and a natural reducing sugar, fructose which glycates, i.e. binds, to the protein in a non-enzymatic manner. The product of this binding is fluorescent and is monitored with a fluorimeter.

In experiment [1], `Cn1c(=O)c2c(ncn2C)n(C)c1=O` [Caffeine, caffeine] returned a Triglycerides of 7120 ± 542 µM/10^6 cell. Moreover, in experiment [1] (Homo sapiens, Adipocyte, 72 h, dns, read-out: Triglycerides Variation (%)), the inhibition at 300 ppm worked out at 9%. The “released glycerol, versus negative control” value in experiment [2] (contact time 1 day) is given as “+200%”. In addition, the activation at 300 ppm in experiment [2] (24 h, contact time 1 day) was found to be 200%; in experiment [2] (48 h, contact time 2 days), 34%; in experiment [2] (72 h, contact time 3 days), 18%; in experiment [3], 171%.

With `Cc1c(C)c2c(c(C)c1O)CCC(C)(C(=O)O)O2` (stereo not drawn) [Trolox], the activation at 500 µM in experiment [4] stood at 27%.

`N=C(N)NN` [aminoguanidine]: the “Glycation % Variation” value in experiment [5] was -85%.
